# Results: patent publication US11053204B2, “Pyrimidinyloxy benzene derivatives as herbicides” (FMC Corporation, priority 2015, dated 2021)
# Key:
# Assay type in all cases: in vivo
# rice (Oryza sativa) = assay: Test B flooded paddy test, plant response rating; details: 250 g ai/ha; Flood; scale of 0 to 100 where 0 is no effect and 100 is complete control; 13 to 15 days
# In short: (§1)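 Pots were flooded to 3 cm above the soil surface at treatment, compound applied directly to the paddy water, and that depth held throughout. Plants were kept in a greenhouse for 13 to 15 days, then visually rated against untreated controls.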
# [1] = system: barnyardgrass (Echinochloa crus-galli); assay: Test B flooded paddy test, plant response rating; details: 250 g ai/ha; Flood; scale of 0 to 100 where 0 is no effect and 100 is complete control; 13 to 15 days
# In short: as §1
# [2] = system: sedge, umbrella (small-flower umbrella sedge, Cyperus difformis); assay: Test B flooded paddy test, plant response rating; details: 250 g ai/ha; Flood; scale of 0 to 100 where 0 is no effect and 100 is complete control; 13 to 15 days
# In short: as §1
# [3] = system: ducksalad (Heteranthera limosa); assay: Test B flooded paddy test, plant response rating; details: 250 g ai/ha; Flood; scale of 0 to 100 where 0 is no effect and 100 is complete control; 13 to 15 days
# In short: as §1
# kochia (Kochia scoparia) [4] = assay: Test A postemergence, visual injury rating; details: 0 is no effect, 100 is complete control; for Kochia plant response rating: 0 to 100 scale, approximately 10 days
# In short: (§2)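 Injury scores run from 0, no effect, to 100, complete control, judged by eye against untreated plants roughly 10 days after treatment. Chemicals carried a surfactant in a non-phytotoxic solvent and went onto loam–sand soil preemergence or onto one- to two-leaf seedlings postemergence.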
# [5] = system: wheat (Triticum aestivum); assay: Test A postemergence, visual injury rating; details: 0 is no effect, 100 is complete control; for Wheat plant response rating: 0 to 100 scale, approximately 10 days
# In short: as §2
# [6] = system: galium (catchweed bedstraw, Galium aparine); assay: Test A postemergence, visual injury rating; details: 0 is no effect, 100 is complete control; for Galium plant response rating: 31 g ai/ha, 0 to 100 scale, approximately 10 days; for Galium plant response rating (0 to 100 scale): 125 g ai/ha
# In short: as §2
# [7] = system: pigweed (Amaranthus retroflexus); assay: Test A postemergence, visual injury rating; details: 0 is no effect, 100 is complete control; for Pigweed plant response rating: 0 to 100 scale, approximately 10 days
# In short: as §2
# [8] = system: Italian ryegrass (Lolium multiflorum); assay: Test A postemergence, visual injury rating; details: 0 is no effect, 100 is complete control; for Ryegrass, Italian plant response rating: 0 to 100 scale, approximately 10 days
# In short: as §2
# [9] = system: ragweed (common ragweed, Ambrosia elatior); assay: Test A postemergence, visual injury rating; details: 0 is no effect, 100 is complete control; for Ragweed plant response rating: 0 to 100 scale, approximately 10 days
# In short: as §2
# [10] = system: barnyardgrass (Echinochloa crus-galli); assay: Test A postemergence, visual injury rating; details: 0 is no effect, 100 is complete control; for Barnyardgrass plant response rating: 31 g ai/ha, 0 to 100 scale, approximately 10 days; for Barnyardgrass plant response rating (0 to 100 scale): 125 g ai/ha
# In short: as §2
# [11] = system: blackgrass (Alopecurus myosuroides); assay: Test A postemergence, visual injury rating; details: 0 is no effect, 100 is complete control; for Blackgrass plant response rating: 31 g ai/ha, 0 to 100 scale, approximately 10 days; for Blackgrass plant response rating (0 to 100 scale): 125 g ai/ha
# In short: as §2
# corn (Zea mays) = assay: Test A postemergence, visual injury rating; details: 0 is no effect, 100 is complete control; for Corn plant response rating: 31 g ai/ha, 0 to 100 scale, approximately 10 days; for Corn plant response rating (0 to 100 scale): 125 g ai/ha
# In short: as §2
# [12] = system: giant foxtail (Setaria faberii); assay: Test A postemergence, visual injury rating; details: 0 is no effect, 100 is complete control; for Foxtail, Giant plant response rating: 31 g ai/ha, 0 to 100 scale, approximately 10 days; for Foxtail, Giant plant response rating (0 to 100 scale): 125 g ai/ha
# In short: as §2
# kochia (Kochia scoparia) [13] = assay: Test A preemergence, visual injury rating; details: for Plant response rating, Kochia: 31 g ai/ha, 0 to 100 scale, 0 no effect, 100 complete control; for Kochia plant response rating: 125 g ai/ha, 0 to 100 scale (0 no effect, 100 complete control)
# In short: as §2
# [14] = system: pigweed (Amaranthus retroflexus); assay: Test A preemergence, visual injury rating; details: for Plant response rating, Pigweed: 31 g ai/ha, 0 to 100 scale, 0 no effect, 100 complete control; for Pigweed plant response rating: 125 g ai/ha, 0 to 100 scale (0 no effect, 100 complete control)
# In short: as §2
# [15] = system: Italian ryegrass (Lolium multiflorum); assay: Test A preemergence, visual injury rating; details: for Plant response rating, Ryegrass, Italian: 31 g ai/ha, 0 to 100 scale, 0 no effect, 100 complete control; for Ryegrass, Italian plant response rating: 125 g ai/ha, 0 to 100 scale (0 no effect, 100 complete control)
# In short: as §2
# [16] = system: ragweed (common ragweed, Ambrosia elatior); assay: Test A preemergence, visual injury rating; details: for Plant response rating, Ragweed: 31 g ai/ha, 0 to 100 scale, 0 no effect, 100 complete control; for Ragweed plant response rating: 125 g ai/ha, 0 to 100 scale (0 no effect, 100 complete control)
# In short: as §2
# [17] = system: barnyardgrass (Echinochloa crus-galli); assay: Test A preemergence, visual injury rating; details: for Plant response rating, Barnyardgrass: 31 g ai/ha, 0 to 100 scale, 0 no effect, 100 complete control; for Barnyardgrass plant response rating: 125 g ai/ha, 0 to 100 scale (0 no effect, 100 complete control)
# In short: as §2
# [18] = system: giant foxtail (Setaria faberii); assay: Test A preemergence, visual injury rating; details: for Plant response rating, Foxtail, Giant: 31 g ai/ha, 0 to 100 scale, 0 no effect, 100 complete control; for Foxtail, Giant plant response rating: 125 g ai/ha, 0 to 100 scale (0 no effect, 100 complete control)
# In short: as §2
Structure (SMILES),"Plant response rating, Rice (rice (Oryza sativa))","Plant response rating, Barnyardgrass [1]","Plant response rating, Sedge, Umbrella [2]","Plant response rating, Ducksalad [3]",Kochia plant response rating (kochia (Kochia scoparia) [4]; 31 g ai/ha),Wheat plant response rating ([5]; 31 g ai/ha),Galium plant response rating [6],Galium plant response rating (0 to 100 scale) [6],Pigweed plant response rating ([7]; 31 g ai/ha),"Ryegrass, Italian plant response rating ([8]; 31 g ai/ha)",Ragweed plant response rating ([9]; 31 g ai/ha),Barnyardgrass plant response rating [10],Barnyardgrass plant response rating (0 to 100 scale) [10],Blackgrass plant response rating [11],Blackgrass plant response rating (0 to 100 scale) [11],Corn plant response rating (corn (Zea mays)),Corn plant response rating (0 to 100 scale) (corn (Zea mays)),"Foxtail, Giant plant response rating [12]","Foxtail, Giant plant response rating (0 to 100 scale) [12]","Plant response rating, Kochia (kochia (Kochia scoparia) [13])",other results
FC(F)(F)CCCOCc1c(Br)cccc1Oc1ncc(Cl)cn1 [Compound 74],0,40,100,100,20,0,20,80,60,0,0,10,40,10,30,10,20,20,70,0,"Kochia plant response rating (kochia (Kochia scoparia) [4]; 125 g ai/ha): 40; Wheat plant response rating ([5]; 125 g ai/ha): 10; Pigweed plant response rating ([7]; 125 g ai/ha): 100; Ryegrass, Italian plant response rating ([8]; 125 g ai/ha): 20; Ragweed plant response rating ([9]; 125 g ai/ha): 10; Kochia plant response rating (kochia (Kochia scoparia) [13]): 100; Plant response rating, Pigweed [14]: 20; Pigweed plant response rating [14]: 90; Plant response rating, Ryegrass, Italian [15]: 0; Ryegrass, Italian plant response rating [15]: 20; Plant response rating, Ragweed [16]: 0; Ragweed plant response rating [16]: 0; Plant response rating, Barnyardgrass [17]: 10; Barnyardgrass plant response rating [17]: 60; Plant response rating, Foxtail, Giant [18]: 40; Foxtail, Giant plant response rating [18]: 100"
O=C(OC1CCCC1)c1c(Br)cccc1Oc1ncc(Cl)cn1 [Compound 44],0,0,30,0,0,0,0,0,0,0,0,0,0,0,0,0,0,0,0,0,"Kochia plant response rating (0 to 100 scale) (kochia (Kochia scoparia) [4]; 125 g ai/ha): 0; Wheat plant response rating (0 to 100 scale) ([5]; 125 g ai/ha): 0; Pigweed plant response rating (0 to 100 scale) ([7]; 125 g ai/ha): 0; Ryegrass, Italian plant response rating (0 to 100 scale) ([8]; 125 g ai/ha): 0; Ragweed plant response rating (0 to 100 scale) ([9]; 125 g ai/ha): 0; Kochia plant response rating (kochia (Kochia scoparia) [13]): 0; Plant response rating, Pigweed [14]: 0; Pigweed plant response rating [14]: 0; Plant response rating, Ryegrass, Italian [15]: 0; Ryegrass, Italian plant response rating [15]: 0; Plant response rating, Ragweed [16]: 0; Ragweed plant response rating [16]: 0; Plant response rating, Barnyardgrass [17]: 0; Barnyardgrass plant response rating [17]: 0; Plant response rating, Foxtail, Giant [18]: 0; Foxtail, Giant plant response rating [18]: 40"
